Measured values reported in ChEMBL document CHEMBL4351025, “Indole-nitroimidazole conjugates as efficient manipulators to decrease the genes expression of methicillin-resistant Staphylococcus aureus” (Eur J Med Chem, 2019).
≈ marks a conversion by molar mass, not a printed value. Calls of active or inactive are those of the source. The calls are words filed in the database; no cut-off is given here.

What was measured:
Klebsiella pneumoniae = assay: Antibacterial activity against Klebsiella pneumoniae incubated for 24 hrs by two fold serial dilution method; format: functional
Staphylococcus aureus [1] = assay: Antibacterial activity against Staphylococcus aureus ATCC 29213 incubated for 24 hrs by two fold serial dilution method; format: functional; settings: ATCC 29213, 24 h
Staphylococcus aureus [2] = assay: Antibacterial activity against methicillin-resistant Staphylococcus aureus N315 incubated for 24 hrs by two fold serial dilution method; format: functional; settings: N315, 24 h
Escherichia coli = assay: Antibacterial activity against Escherichia coli incubated for 24 hrs by two fold serial dilution method; format: functional
Enterococcus faecalis = assay: Antibacterial activity against Enterococcus faecalis incubated for 24 hrs by two fold serial dilution method; format: functional
Pseudomonas aeruginosa = assay: Antibacterial activity against Pseudomonas aeruginosa incubated for 24 hrs by two fold serial dilution method; format: functional
Acinetobacter baumannii = assay: Antibacterial activity against Acinetobacter baumannii incubated for 24 hrs by two fold serial dilution method; format: functional
DNA [3] = assay: Binding affinity to methicillin-resistant Staphylococcus aureus N315 DNA assessed as hyperchromic effect by neutral red dye based UV-visible spectrophotometric method; format: nucleic-acid assay; settings: Staphylococcus aureus subsp. aureus N315
Albumin [4] = biological target: T1, Albumin (Homo sapiens, UniProt P02768); assay: Binding affinity to HSA assessed as Stem-Volmer quenching constant at 313 K by spectrofluorimetric analysis; format: ADME; settings: isolated protein
T1 sequence (P02768 whole entry): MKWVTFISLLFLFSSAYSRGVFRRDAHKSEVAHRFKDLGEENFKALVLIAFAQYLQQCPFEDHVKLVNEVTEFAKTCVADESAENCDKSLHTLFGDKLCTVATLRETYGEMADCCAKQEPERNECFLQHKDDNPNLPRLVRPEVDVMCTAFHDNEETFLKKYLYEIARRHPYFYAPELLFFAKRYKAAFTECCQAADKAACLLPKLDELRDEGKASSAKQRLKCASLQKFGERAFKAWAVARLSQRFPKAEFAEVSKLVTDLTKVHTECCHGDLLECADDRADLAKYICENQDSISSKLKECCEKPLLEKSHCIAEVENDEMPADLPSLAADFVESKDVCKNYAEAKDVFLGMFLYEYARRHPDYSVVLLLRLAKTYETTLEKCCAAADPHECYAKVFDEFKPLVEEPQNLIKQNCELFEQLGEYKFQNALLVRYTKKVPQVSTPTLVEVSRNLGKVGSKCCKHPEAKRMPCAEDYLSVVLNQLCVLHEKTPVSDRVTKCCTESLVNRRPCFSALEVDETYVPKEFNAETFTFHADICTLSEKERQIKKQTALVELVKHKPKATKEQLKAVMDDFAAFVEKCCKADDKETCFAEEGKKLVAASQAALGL

Albumin [5] = biological target: T1, Albumin; assay: Binding affinity to HSA assessed as effective quenching constant at 313 K by spectrofluorimetric based Stern-Volmer method; format: ADME; settings: isolated protein
Staphylococcus aureus [6] = assay: Antibacterial activity against methicillin-resistant Staphylococcus aureus N315 assessed as reduction in MecA gene expression incubated for 3 hrs by qRT-PCR analysis; format: functional, organism-based
Albumin [7] = biological target: T1, Albumin; assay: Binding affinity to HSA assessed as binding constant at 290 K by spectrofluorimetric based Scatchard method; format: ADME; settings: isolated protein
Albumin [8] = biological target: T1, Albumin; assay: Binding affinity to HSA assessed as quenching constant at 300 K by spectrofluorimetric analysis; format: ADME; settings: isolated protein
Staphylococcus aureus [9] = assay: Antibacterial activity against methicillin-resistant Staphylococcus aureus N315 assessed as reduction in GyrB gene expression incubated for 3 hrs by qRT-PCR analysis; format: functional, organism-based
Albumin [10] = biological target: T1, Albumin; assay: Binding affinity to HSA assessed as quenching constant at 290 K by spectrofluorimetric analysis; format: ADME; settings: isolated protein
Albumin [11] = biological target: T1, Albumin; assay: Binding affinity to HSA assessed as binding constant at 313 K by spectrofluorimetric based Scatchard method; format: ADME; settings: isolated protein
Albumin [12] = biological target: T1, Albumin; assay: Binding affinity to HSA assessed as Stem-Volmer quenching constant at 290 K by spectrofluorimetric analysis; format: ADME; settings: isolated protein
Staphylococcus aureus [13] = assay: Induction of membrane permeabilization in methicillin-resistant Staphylococcus aureus N315 assessed as increase in fluorescence intensity at 12 times MIC measured within 70 mins by propidium iodide staining based fluorescence assay; format: functional, organism-based
Albumin [14] = biological target: T1, Albumin; assay: Binding affinity to HSA assessed as binding constant at 298K by spectrofluorimetric based Scatchard method; format: ADME; settings: isolated protein
DNA [15] = assay: Binding affinity to methicillin-resistant Staphylococcus aureus DNA assessed as reduction in neutral red binding to DNA by UV-visible spectrophotometric method; format: nucleic-acid assay
Albumin [16] = biological target: T1, Albumin; assay: Ratio of binding affinity for HSA assessed as binding constant at 298K in presence of Mg2+ ion to binding affinity to HSA at 298K by spectrofluorimetric based Scatchard method; format: ADME; settings: isolated protein
Staphylococcus aureus [17] = assay: Antibacterial activity against methicillin-resistant Staphylococcus aureus N315 at 0.5 times MIC measured over 6 passages; format: functional, organism-based
Albumin [18] = biological target: T1, Albumin; assay: Binding affinity to HSA assessed as binding constant at 298K in presence of Mg2+ ion by spectrofluorimetric based Scatchard method; format: ADME; settings: isolated protein
Albumin [19] = biological target: T1, Albumin; assay: Ratio of binding affinity for HSA assessed as binding constant at 298K in presence of Ca2+ ion to binding affinity to HSA at 298K by spectrofluorimetric based Scatchard method; format: ADME; settings: isolated protein
Albumin [20] = biological target: T1, Albumin; assay: Binding affinity to HSA assessed as effective quenching constant at 290 K by spectrofluorimetric based Stern-Volmer method; format: ADME; settings: isolated protein
Albumin [21] = biological target: T1, Albumin; assay: Binding affinity to HSA assessed as Stem-Volmer quenching constant at 300 K by spectrofluorimetric analysis; format: ADME; settings: isolated protein
Albumin [22] = biological target: T1, Albumin; assay: Binding affinity to HSA assessed as quenching constant at 313 K by spectrofluorimetric analysis; format: ADME; settings: isolated protein
Staphylococcus aureus [23] = assay: Antibacterial activity against methicillin-resistant Staphylococcus aureus N315 assessed as reduction in FemB gene expression incubated for 3 hrs by qRT-PCR analysis; format: functional, organism-based
[24] = Cytotoxicity activity against human A549 cells assessed as cell viability at 2 to 64 ug/ml incubated for 24 hrs by MTT assay relative to control; format: cell-based; settings: read-out: Activity
Albumin [25] = biological target: T1, Albumin; assay: Binding affinity to HSA assessed as effective quenching constant at 300 K by spectrofluorimetric based Stern-Volmer method; format: ADME; settings: isolated protein
DNA [26] = assay: Binding affinity to methicillin-resistant Staphylococcus aureus N315 DNA by neutral red dye based UV-visible spectrophotometric method; format: nucleic-acid assay; settings: Staphylococcus aureus subsp. aureus N315
Albumin [27] = biological target: T1, Albumin; assay: Binding affinity to HSA assessed as binding constant at 298K in presence of Ca2+ ion by spectrofluorimetric based Scatchard method; format: ADME; settings: isolated protein
Albumin [28] = biological target: T1, Albumin; assay: Binding affinity to HSA assessed as binding constant at 300 K by spectrofluorimetric based Scatchard method; format: ADME; settings: isolated protein
[29] = Cytotoxicity activity against human BEAS2B cells assessed as cell viability at 64 ug/ml incubated for 24 hrs by MTT assay relative to control; format: cell-based; settings: BEAS-2B cells, read-out: Activity

With `CC(=O)/C(=C/c1cn(CC(=O)N2CCN(Cc3ccc(F)cc3)CC2)c2cc(Cl)ccc12)n1cc([N+](=O)[O-])nc1C` the MIC (Klebsiella pneumoniae) was 512 µg/mL (≈ 884 µM), the MIC (Staphylococcus aureus [1]) was 512 µg/mL (≈ 884 µM) and the MIC (Staphylococcus aureus [2]) was 512 µg/mL (≈ 884 µM). For the same compound, the MIC (Escherichia coli) was 512 µg/mL (≈ 884 µM), the MIC (Enterococcus faecalis) was 2 µg/mL (≈ 3.45 µM) and the MIC (Pseudomonas aeruginosa) was 128 µg/mL (≈ 221 µM). For the same compound, the MIC (Acinetobacter baumannii) was 512 µg/mL (≈ 884 µM).
`CCN(CC)C(=O)Cn1cc(/C=C(/C(C)=O)n2cc([N+](=O)[O-])nc2C)c2ccc(C)cc21` showed an MIC (Klebsiella pneumoniae) of 512 µg/mL (≈ 1170 µM), an MIC (Staphylococcus aureus [1]) of 16 µg/mL (≈ 36.6 µM) and an MIC (Staphylococcus aureus [2]) of 4 µg/mL (≈ 9.14 µM). The MIC (Escherichia coli) was 128 µg/mL (≈ 293 µM), the MIC (Enterococcus faecalis) was 64 µg/mL (≈ 146 µM) and the MIC (Pseudomonas aeruginosa) was 128 µg/mL (≈ 293 µM). It also gave an MIC (Acinetobacter baumannii) of 512 µg/mL (≈ 1170 µM).
With `CC(=O)/C(=C/c1cn(CC(=O)N(C(C)C)C(C)C)c2ccccc12)n1cc([N+](=O)[O-])nc1C` the MIC (Klebsiella pneumoniae) was 16 µg/mL (≈ 35.4 µM), the MIC (Staphylococcus aureus [1]) was 512 µg/mL (≈ 1130 µM) and the MIC (Staphylococcus aureus [2]) was 1 µg/mL (≈ 2.21 µM). It also gave an MIC (Escherichia coli) of 64 µg/mL (≈ 142 µM), an MIC (Enterococcus faecalis) of 64 µg/mL (≈ 142 µM) and an MIC (Pseudomonas aeruginosa) of 512 µg/mL (≈ 1130 µM). It also gave an MIC (Acinetobacter baumannii) of 512 µg/mL (≈ 1130 µM).
For `CC(=O)/C(=C/c1cn(CC(=O)N2CCCCC2)c2ccccc12)n1cc([N+](=O)[O-])nc1C`, the Activity (DNA [3]) was “Active”, the KSV (Albumin [4]) was 6.35 ×10⁴ L/mol and the MIC (Klebsiella pneumoniae) was 8 µg/mL (≈ 18.4 µM). The Kq (Albumin [5]) was 56900 M⁻¹, the Activity (Staphylococcus aureus [6]) was “Active” and the Kb (Albumin [7]) was 5.88 ×10⁴ L/mol. For the same compound, the Kq (Albumin [8]) was 1.19 ×10¹³ L/mol/s, the Activity (Staphylococcus aureus [9]) was “Active” and the Kq (Albumin [10]) was 1.27 ×10¹³ L/mol/s. For the same compound, the Kb (Albumin [11]) was 4.95 ×10⁴ L/mol, the KSV (Albumin [12]) was 8.14 ×10⁴ L/mol and the MIC (Staphylococcus aureus [1]) was 128 µg/mL (≈ 294 µM). For the same compound, the MIC (Staphylococcus aureus [2]) was 1 µg/mL (≈ 2.3 µM), the Activity (Staphylococcus aureus [13]) was “Active” and the Kb (Albumin [14]) was 4.624 ×10⁴ L/mol. The MIC (Escherichia coli) was 1 µg/mL (≈ 2.3 µM), the Activity (DNA [15]) was “Active” and the Ratio (Albumin [16]) was 103%. The Activity (Staphylococcus aureus [17]) was “Active”, the MIC (Enterococcus faecalis) was 32 µg/mL (≈ 73.5 µM) and the Kb (Albumin [18]) was 4.766 ×10⁴ L/mol. The Ratio (Albumin [19]) was 124%, the Kq (Albumin [20]) was 132000 M⁻¹ and the MIC (Pseudomonas aeruginosa) was 128 µg/mL (≈ 294 µM). The KSV (Albumin [21]) was 7.63 ×10⁴ L/mol, the Kq (Albumin [22]) was 0.99 ×10¹³ L/mol/s and the Activity (Staphylococcus aureus [23]) was “Active”. For the same compound, the viability at 24 h [24] was over 75%, the Kq (Albumin [25]) was 79800 M⁻¹ and the Activity (DNA [26]) was “Dose-dependent effect”. For the same compound, the K (DNA [26]) was 3.45 ×10⁵ L/mol, the Kb (Albumin [27]) was 5.729 ×10⁴ L/mol and the Kb (Albumin [28]) was 5.73 ×10⁴ L/mol. For the same compound, the MIC (Acinetobacter baumannii) was 128 µg/mL (≈ 294 µM) and the viability at 24 h, 64 ug/ml [29] was 74%.
Compound `CC(=O)/C(=C/c1cn(CC(=O)N(C2CCCCC2)C2CCCCC2)c2ccccc12)n1cc([N+](=O)[O-])nc1C` has an MIC (Klebsiella pneumoniae) of 8 µg/mL (≈ 15 µM), an MIC (Staphylococcus aureus [1]) of 512 µg/mL (≈ 963 µM) and an MIC (Staphylococcus aureus [2]) of 2 µg/mL (≈ 3.76 µM). It also gave an MIC (Escherichia coli) of 32 µg/mL (≈ 60.2 µM), an MIC (Enterococcus faecalis) of 128 µg/mL (≈ 241 µM) and an MIC (Pseudomonas aeruginosa) of 512 µg/mL (≈ 963 µM). It also gave an MIC (Acinetobacter baumannii) of 512 µg/mL (≈ 963 µM).
